Source: patent publication US5912351A, “Anhydrous 1,4-Dihydropyridines and salts thereof” (Recordati, S.A. Chemical and Pharmaceutical Company, priority 1995, dated 1999)
Counter-ions that a name gives are not always drawn.

How the values were obtained:
[1] = Water content at 75% relative humidity (Karl-Fisher); assay type: physicochemical
Procedure: Samples of anhydrous lercanidipine hydrochloride and lercanidipine hydrochloride hemihydrate were placed in open polyethylene bags in flasks and heated, in the dark, at 60° C. and 75% relative humidity. The samples were checked for hygroscopicity by determination of the water content using the Karl-Fisher method. The samples were tested at 8 and 15 days.
Two additional samples of the anhydrous lercanidipine hydrochloride and lercanidipine hydrochloride hemihydrate were placed in open polyethylene bags in flasks and heated, in the dark, at 40° C. and 75% relative humidity. The samples were tested as described above at 8 and 15 days.

[2] = High temperature stress stability at 100° C., HPLC assay; assay type: physicochemical; conditions: in the light
Procedure: The two samples, lercanidipine hydrochloride hemihydrate, and anhydrous lercanidipine hydrochloride were heated, in the light, at 100° C. for 48 hours. The samples were tested at the following times; 0 hours, 24 hours, and 48 hours. The purity of the lercanidipine was checked by HPLC analysis under the following conditions:
Column: m-Bondapak C-18 (Waters), particle size […], 300×3.9 mm i.d.

[3] = system: mouse peritoneal macrophages; test: Cholesteryl ester hydrolysis in macrophages; assay type: cell-based; conditions: AcLDL 50 μg/ml + S-58035 1 μg/ml
Procedure: These experiments were performed by incubating cells preloaded with [^3 H]cholesterol in the presence of the specific ACAT inhibitor S-58035. The blockage of intracellular reesterification of cholesterol allowed the assessment of the ability of cells to hydrolyze the accumulated cholesterol esters.
For studies involving the quantitation of the hydrolysis of cholesteryl esters in cytoplasmic lipid droplets, cells, prepared according to the procedure in Example 6A, are loaded with cholesteryl esters by exposure for 24 hours to the medium containing 50 μg/ml acetyl LDL. [1,2-^3 H]Cholesterol is included in all loading media at a concentration of 0.5 μCi/ml. After 24 hours loading period, during which time the radiolabeled cholesterol is incorporated and esterified, the cell monolayers are washed and incubated an additional 24 hours in medium containing 0.1% bovine serum albumin to allow the intracellular pools of labelled cholesterol to equilibrate to the same specific activity. To quantitate cholesteryl ester hydrolysis, the loaded cells are incubated for up to 24 hours in Dulbecco's minimum essential medium containing, 0.1% bovine serum albumin, lercanidipines, and the compound S-58035, an inhibitor of acyl-coenzyme A-cholesterol acyltransferase. The inhibition of acyl-coenzyme A-cholesterol acyltransferase prevents the reesterification of any free cholesterol generated by cholesteryl ester hydrolysis and thus allows assessment of the activity of the hydrolase. The hydrolysis of the cholesteryl esters is quantified by determining the decrease of radiolabeled cholesteryl esters (E. H. Harrison et al., J. Lipid. Res. 31: […] with phosphate buffered saline and extracted with hexane:isopropanol (3:2 v/v). The media were extracted with chloroform:methanol (2:1 v/v). After solvent removal, free and esterified cholesterol were separated by TLC (isooctane:diethyl ether:acetic acid, 75:25:2 by volume). Cholesterol mass or radioactivity of the spots were determined by an enzymatic method (Boehringer Mannheim, Germany) (F. Bernini et al., Atherosclerosis 104: 19 (1993)) or by liquid scintillation counting (Lipoluma Lumac, Landgraf, The Netherlands) respectively.

COC(=O)C1=C(C)NC(C)=C(C(=O)OC(C)(C)CN(C)CCC(c2ccccc2)c2ccccc2)C1c1cccc([N+](=O)[O-])c1 (stereo not shown) [Anhydrous, METHYL 1,1-N-TRIMETHYL-N-(3,3-DIPHENYLPROPYL)-2-AMINOETHYL 1,4-DIHYDRO-2,6-DIMETHYL-4-(3-NITROPHENYL) PYRIDINE-3,5-DICARBOXYLATE (LERCANIDIPINE) HYDROCHLORIDE]
Water Content ([1]; 40° C., 0 days, HYDROCHLORIDE): 0.28%
Water Content ([1]; 40° C., 8 days, HYDROCHLORIDE): 0.3%
Water Content ([1]; 40° C., 15 days, HYDROCHLORIDE): 0.32%
Water Content ([1]; 60° C., 0 days, HYDROCHLORIDE): 0.28%
Water Content ([1]; 60° C., 8 days, HYDROCHLORIDE): 0.85%
Water Content ([1]; 60° C., 15 days, HYDROCHLORIDE): 0.77%
Assay % by HPLC ([2]; 0 hr, HYDROCHLORIDE): 99.74%
remaining at 24 h ([2]; solid, 24 hrs): 99.4%
remaining at 48 h ([2]; solid, 48 hrs): 99%

CCCCCCCCCC[Si](C)(C)CCC(=O)NC(Cc1ccc(C)cc1)c1ccccc1 (stereo not shown) [Example S-58035, reference compound]
% of cholesteryl ester [3]: 15 ± 0.5%

COC(=O)C1=C(C)NC(C)=C(C(=O)OC(C)(C)CN(C)CCC(c2ccccc2)c2ccccc2)C1c1cccc([N+](=O)[O-])c1 (stereo not shown) [Hemihydrate, Lercanidipine hydrochloride hemihydrate, reference compound]
Water Content ([1]; 40° C., 0 days): 1.42%
Water Content ([1]; 40° C., 8 days): 3.14%
Water Content ([1]; 40° C., 15 days): 3.05%
Water Content ([1]; 60° C., 0 days): 1.42%
Water Content ([1]; 60° C., 8 days): 4%
Water Content ([1]; 60° C., 15 days): 4.04%
Assay % by HPLC ([2]; 0 hr): 99.85%
Assay % by HPLC ([2]; 24 hrs, hydrochloride hemihydrate, 1440 min): 92.35%
Assay % by HPLC ([2]; 48 hrs, hydrochloride hemihydrate, 2880 min): 90.96%
